PMC9804871, “Effect of Opicapone on Levodopa Pharmacokinetics in Patients with Fluctuating Parkinson's Disease” (Movement Disorders, 2022)
“Also recorded” adds a separate entry of the source.

What was measured:
[1] = opicapone pivotal trials; average; cited from earlier work
[2] = 12-hour levodopa plasma pharmacokinetics; format: in vivo, human (patients with PD)
Protocol: The study design is illustrated in Figure 1.
Pharmacokinetic evaluation occurred over 12 hours with sampling every 30 minutes, except for the last sample following each LD dose in the opicapone plus four LD intake regimen, which was sampled at 1 hour. The main pharmacokinetics parameters assessed included maximum observed plasma concentration (Cmax), time to achieve peak plasma levels (tmax), minimum observed plasma concentration (Cmin), plasma elimination half‐life (t1/2), area under the curve (AUC), and fluctuation index (FI; as an expression of peak‐to‐trough fluctuation, Cmax, and Cmin, relative to average concentration [Cavg]). The pharmacokinetics of the LD metabolite 3‐O‐methyldopa (3‐OMD) was also evaluated.
Descriptive statistics were used to summarize the pharmacokinetics parameters for LD and 3‐OMD for each of the three regimens. […] No formal comparison was performed between opicapone regimens.

[3] = opicapone 50 mg added to LD/CD 400/100 mg (both regimens) vs LD/CD 500/125 mg without opicapone

## Cc1c(Cl)c(C)[n+]([O-])c(Cl)c1-c1noc(-c2cc(O)c(O)c([N+](=O)[O-])c2)n1 [opicapone]
[1]
  reduction of off time relative to placebo: 1 h
[2]; [3]
  effect on LD minimal (trough) concentrations (Cmin): at least doubled; also recorded: twofold increase
  effect on LD plasma half-life (t1/2): at least doubled
[2]; opicapone 50 mg added to either LD/CD 400/100 mg regimen
  impact on time to reach (tmax) maximum LD concentrations: no impact
[2]; opicapone 50 mg added to either LD/CD 400/100 mg regimen vs five-intake LD/CD 500/125 mg without opicapone
  impact on maximal LD concentrations (Cmax): no significant impact
